Values of other authors, collected in PMC8838197, “Coumarin-Resveratrol-Inspired Hybrids as Monoamine Oxidase B Inhibitors: 3-Phenylcoumarin versus trans-6-Styrylcoumarin” (Molecules, 2022).

Test system: MAO-B
Set-up: pIC50 MAO-B: unit not given here
Conditions: cited from earlier work; for pIC50 MAO-B: Table S8

| SMILES | pIC50 MAO-B | MAO-B pIC50 (data set compounds) | activity against MAO-B isoform (data set compounds) |
| --- | --- | --- | --- |
| Cc1ccc2oc(=O)c(C(=O)Nc3cccc(Br)c3)cc2c1 [Compound 105] | 8.332 | – | – |
| Cc1cccc(-c2cc3cc(C)ccc3oc2=O)c1 [Compound 18] | 7.824 | – | – |
| Cc1ccc2oc(=O)c(C(=O)Nc3ccc(Br)cc3)cc2c1 [Compound 106] | 7.943 | > 6.5 | – |
| CCC#CCNc1ccc2c(C)cc(=O)oc2c1 [Compound 151] | 5.401 | – | – |
| Cc1ccc2occ(C(=O)Nc3cccc(Cl)c3)c(=O)c2c1 [Compound 124] | 8.377 | – | – |
| COc1ccc2oc(=O)c(C(=O)Nc3cccc(C)c3)cc2c1 [Compound 117] | 7.326 | – | – |
| Cc1cccc(NC(=O)c2cc3cc(C)ccc3oc2=O)c1 [Compound 99] | 8.124 | – | – |
| Cc1ccc2occ(C(=O)Nc3ccc(Cl)cc3)c(=O)c2c1 [Compound 127] | 7.343 | > 6.5 | – |
| COc1cc(OC)c(Br)c(-c2cc3cc(C)ccc3oc2=O)c1 [Compound 22] | 4.267 | – | – |
| Cc1ccc(C(=O)Nc2ccc3c(C)cc(=O)oc3c2)cc1 [Compound 160] | 6.046 | – | – |
| COc1ccc(-c2cc3cc(Br)ccc3oc2=O)cc1 [Compound 53] | 8.222 | – | – |
| Cc1ccc2oc(=O)c(-c3ccccc3[N+](=O)[O-])cc2c1 [Compound 86] | 5.258 | – | – |
| Cc1ccc2oc(=O)c(C(=O)Nc3ccc(Cl)cc3)cc2c1 [Compound 114] | 7.955 | > 6.5 | – |
| O=c1oc2ccc3ccccc3c2cc1-c1ccccc1O [Compound 83] | 5.496 | – | – |
| COc1ccc2oc(=O)c(C(=O)Nc3cccc(Cl)c3)cc2c1 [Compound 118] | 8.044 | – | – |
| Cc1ccc2oc(=O)c(C(=O)Nc3ccccc3O)cc2c1 [Compound 107] | 7.738 | – | – |
| O=c1oc2ccc3ccccc3c2cc1-c1cc(O)cc(O)c1 [Compound 85] | 4.503 | – | – |
| COc1ccc2oc(=O)c(C(=O)Nc3ccc(Cl)cc3)cc2c1 [Compound 121] | 7.724 | > 6.5 | – |
| COc1ccc(-c2cc3cc(C)ccc3oc2=O)cc1 [Compound 2] | 7.884 | – | – |
| Cc1cc(=O)oc2cc(NC(=O)c3ccc(Cl)cc3)ccc12 [Compound 161] | 6.509 | – | – |
| COc1cc(OC)cc(-c2cc3cc(C)cc(Br)c3oc2=O)c1 [Compound 10] | 8.148 | > 6.5 | – |
| Cc1ccc2oc(=O)c(-c3ccc(N)cc3)cc2c1 [Compound 91] | 8.387 | > 6.5 | – |

| SMILES | pIC50 MAO-B | MAO-B pIC50 (data set compounds) | activity against MAO-B isoform (data set compounds) |
| --- | --- | --- | --- |
| O=C(Nc1cc2ccccc2oc1=O)C1CCCCC1 [Compound 49] | 4.301 | – | – |
| COc1ccc2occ(C(=O)Nc3ccc(C)cc3)c(=O)c2c1 [Compound 133] | 6.676 | – | – |
| Cc1ccc2oc(=O)c(C(=O)Nc3ccc(O)cc3)cc2c1 [Compound 115] | 6.206 | < 6.5 | – |
| Cc1ccc(-c2cc3cc(OC4CCCC4)ccc3oc2=O)cc1 [Compound 16] | 4.84 | – | – |
| COc1ccc2occ(C(=O)Nc3cccc(Cl)c3)c(=O)c2c1 [Compound 131] | 8.405 | – | – |
| COc1ccccc1-c1cc2cc(C)ccc2oc1=O [Compound 6] | 6.808 | > 6.5 | – |
| COc1ccc2oc(=O)c(-c3cccc(Br)c3)cc2c1 [Compound 67, 3-(3′-bromophenyl)-6-methoxycoumarin] | 9.187 | > 6.5 | – |
| COc1cccc(-c2cc3c(ccc4ccccc43)oc2=O)c1 [Compound 76] | 8.613 | > 6.5 | – |
| COc1ccc2occ(C(=O)Nc3cccc(O)c3)c(=O)c2c1 [Compound 132] | 6.945 | – | – |
| COc1cccc(-c2cc3cc(C)ccc3oc2=O)c1 [Compound 5, 3-(3′-methoxyphenyl)-6-methylcoumarin] | 9.096 | – | picomolar range |
| Cc1cccc(-c2cc3c(ccc4ccccc43)oc2=O)c1 [Compound 80] | 5.62 | – | – |
| O=c1oc2ccccc2cc1-c1ccccc1 [Compound 40] | 4.928 | – | – |
| Cc1ccc2oc(=O)c(-c3cccc([N+](=O)[O-])c3)cc2c1 [Compound 87] | 8.222 | – | – |
| COc1ccc2oc(=O)c(-c3ccc(C)cc3)cc2c1 [Compound 13] | 8.818 | – | – |
| Cc1cc(=O)oc2cc(NC(=O)c3ccccc3)ccc12 [Compound 159] | 6.444 | – | – |
| Cc1ccc2oc(=O)c(C(=O)Nc3cccc(Cl)c3)cc2c1 [Compound 112] | 8.295 | – | – |
| COc1ccc2oc(=O)c(C(=O)Nc3cccc(O)c3)cc2c1 [Compound 119] | 6.641 | – | – |
| CCC#CCNc1ccc2c(C(F)(F)F)cc(=O)oc2c1 [Compound 152] | 5.094 | – | – |
| CC#CCNc1cc2ccccc2oc1=O [Compound 149] | 4.922 | – | – |
| COc1ccc2oc(=O)c(C(=O)Nc3ccc(C)cc3)cc2c1 [Compound 120] | 7.712 | – | – |
| COc1cccc2cc(-c3ccc(Br)cc3)c(=O)oc12 [Compound 35] | 5.48 | – | – |
| Cc1ccc2oc(=O)c(C(=O)Nc3ccc(O)cc3)cc2c1 [Compound 109] | 6.206 | < 6.5 | – |

| SMILES | pIC50 MAO-B | MAO-B pIC50 (data set compounds) | activity against MAO-B isoform (data set compounds) |
| --- | --- | --- | --- |
| CC(=O)COc1cccc(-c2cc3cc(C)ccc3oc2=O)c1 [Compound 25] | 6.745 | – | – |
| Cc1ccc2oc(=O)c(C(=O)Nc3ccccc3Br)cc2c1 [Compound 104] | 7.87 | – | – |
| COc1cccc(NC(=O)c2cc3cc(C)ccc3oc2=O)c1 [Compound 102] | 7.996 | – | – |
| COc1ccc(-c2cc3cc(C)ccc3oc2=O)cc1OC [Compound 19] | 8.564 | – | – |
| Cc1ccc2oc(=O)c(-c3ccccc3Br)cc2c1 [Compound 8] | 7.957 | > 6.5 | – |
| Cc1ccc2oc(=O)c(-c3ccc(O)c(O)c3)cc2c1 [Compound 136] | 5.328 | – | – |
| COc1ccc(NC(=O)c2cc3cc(C)ccc3oc2=O)cc1 [Compound 103] | 6.527 | – | – |
| Cc1ccc2oc(=O)c(-c3ccccc3)cc2c1 [Compound 1] | 6.547 | – | – |
| CC(=O)COc1ccc2oc(=O)c(-c3ccc(C)cc3)cc2c1 [Compound 15] | 5.258 | – | – |
| COc1cc(C(=O)Nc2cc3ccccc3oc2=O)cc(OC)c1OC [Compound 47] | 4.139 | – | – |
| O=C(Nc1cc2ccccc2oc1=O)c1ccc(Cl)c(Cl)c1 [Compound 48] | 5.225 | – | – |
| CCC#CCNc1cc2ccccc2oc1=O [Compound 150] | 5.963 | – | – |
| Cc1ccc2oc(=O)c(-c3ccc(Br)cc3)cc2c1 [Compound 64, 3-(4′-bromophenyl)-6-methylcoumarin] | 9.412 | > 6.5 | – |
| COc1ccc(-c2cc3c(ccc4ccccc43)oc2=O)cc1OC [Compound 78] | 7.312 | > 6.5 | – |
| CC(=O)COc1ccc2oc(=O)c(-c3cccc(Br)c3)cc2c1 [Compound 71] | 5.83 | – | – |
| COc1ccc(-c2c(O)c3cc(C)ccc3oc2=O)cc1 [Compound 27] | 4.494 | – | – |
| COc1ccccc1NC(=O)c1cc2cc(C)ccc2oc1=O [Compound 101] | 6.794 | – | – |
| Cc1cc(=O)oc2cc(NC(=O)CC(C)(C)C)ccc12 [Compound 157] | 6.602 | – | – |
| COc1ccc(-c2cc3cc(C)ccc3oc2=O)cc1Br [Compound 21] | 8.488 | – | – |
| COc1cc(OC)c(-c2cc3cc(C)ccc3oc2=O)cc1Br [Compound 140] | 6.879 | > 6.5 | – |
| COc1ccc2occ(C(=O)Nc3ccccc3)c(=O)c2c1 [Compound 129] | 7.379 | – | – |
| COc1cc(-c2cc3cc(C)ccc3oc2=O)ccc1Br [Compound 20] | 9.131 | > 6.5 | – |

| SMILES | pIC50 MAO-B | MAO-B pIC50 (data set compounds) | activity against MAO-B isoform (data set compounds) |
| --- | --- | --- | --- |
| COc1ccc2oc(=O)c(-c3cccc(C)c3)cc2c1 [Compound 12] | 7.768 | > 6.5 | – |
| Cc1ccc2oc(=O)c(C(=O)Nc3ccccc3)cc2c1 [Compound 110] | 7.815 | – | – |
| O=C(Nc1cc2ccccc2oc1=O)c1cccs1 [Compound 94] | 5.644 | – | – |
| O=c1oc2ccc(O)cc2cc1-c1cccc(Br)c1 [Compound 69] | 8.097 | > 6.5 | – |
| COc1ccc2occ(C(=O)Nc3ccc(Cl)cc3)c(=O)c2c1 [Compound 134] | 7.987 | > 6.5 | – |
| Cc1ccc2oc(=O)c(-c3cccc(N)c3)cc2c1 [Compound 90] | 8.658 | – | – |
| COc1ccc2oc(=O)c(-c3ccccc3)cc2c1 [Compound 62] | 6.384 | – | – |
| Cc1cccc(NC(=O)c2coc3ccc(C)cc3c2=O)c1 [Compound 123] | 7.767 | – | – |
| COc1cccc2cc(-c3cccc(C)c3)c(=O)oc12 [Compound 141] | 7.092 | > 6.5 | – |
| COc1ccc(C(=O)Nc2cc3ccccc3oc2=O)cc1 [Compound 44] | 4.516 | – | – |
| Cc1ccc2occ(C(=O)Nc3ccc(O)cc3)c(=O)c2c1 [Compound 128] | 6.29 | < 6.5 | – |
| O=C(Nc1c(O)c2ccccc2oc1=O)C1CCCCC1 [Compound 97] | 4.648 | – | – |
| COc1ccc(-c2c(O)c3ccccc3oc2=O)cc1 [Compound 26] | 4.157 | – | – |
| COc1ccc(C(=O)Nc2cc3ccccc3oc2=O)cc1OC [Compound 46] | 4.234 | – | – |
| O=C(O)COc1ccc2oc(=O)c(-c3cccc(Br)c3)cc2c1 [Compound 74] | 8.62 | > 6.5 | – |
| COc1cccc2cc(-c3ccccc3)c(=O)oc12 [Compound 34] | 6.824 | – | – |
| COc1ccc(-c2cc3c(ccc4ccccc43)oc2=O)cc1 [Compound 75] | 7.237 | – | – |
| Cc1ccc2oc(=O)c(C(=O)Nc3cccc(O)c3)cc2c1 [Compound 108] | 7.343 | – | – |
| COc1ccc2occ(C(=O)Nc3ccc(O)cc3)c(=O)c2c1 [Compound 135] | 6.171 | < 6.5 | – |
| COc1ccc2oc(=O)c(C(=O)Nc3ccccc3)cc2c1 [Compound 116] | 8.225 | – | – |
| O=C(Nc1c(O)c2ccccc2oc1=O)c1ccc(Cl)c(Cl)c1 [Compound 93] | 4.721 | – | – |
